Several values for one entry are separate records, joined by “and”; a condition that tells them apart may be missing. Equal values may be shown once. Inconclusive results are not listed. Activity calls are given as the source filed them.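 How the source made its calls: active means compounds lowering the luciferase signal with a fitted half-maximal dose at most twice their top valid dose (cut at about 30 µM in these data); inconclusive means flat fits with moderate signal loss, or poor fits; inactive means the rest.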
Tested on: Clone20 osteoblast Shn3 3'UTR firefly luciferase, 24 h
Test: Shn3 3'UTR reporter inhibitors, dose response, cell-based, Clone20 osteoblasts, luminescence, dry powder, set 2 (AID 743417)

Row | Structure (SMILES) | AC50
1 | COc1ccc(-c2cc(C(F)(F)F)nc(S(=O)(=O)CCCC(=O)Nc3cccnc3Cl)n2)cc1OC | 3170 nM
2 | O=c1c2ccccc2nc2n1C(CSCc1cccc(C(F)(F)F)c1)CS2 (centres undefined) | 1680 nM
3 | CC(=O)OC1(C)CC(C)C(=O)C(C(O)CC2CC(=O)NC(=O)C2)C1 (centres undefined) | < 260 nM
4 | O=C(NCc1cccnc1)c1ccc(-c2ccc(F)c(F)c2)c2ccoc12 | 3480 nM
5 | CC(C)C[C@H]1CNC(=S)N1CC1CCN(CC2CCC(C(C)(C)C)CC2)CC1 (some centres undefined) | 4050 nM
6 | COCCn1c(CN2CCN(c3cccc(Cl)c3)CC2)nc2c1c(=O)n(C)c(=O)n2C | 10700 nM
7 | c1ccc(CC2CCN(c3ncnc4sccc34)CC2)cc1 | 362 nM
8 | Cc1cc(Sc2ncnc(N)c2[N+](=O)[O-])ncn1 | 5700 nM
9 | COc1cccc(NC(=O)c2nc(S(C)(=O)=O)ncc2Cl)c1 | 834 nM
10 | CCC(C)C1NC(=O)C(NC(=O)C(CC(C)C)N(C)C(=O)C2CCCN2C(=O)C(C)O)C(C)OC(=O)C(Cc2ccc(OC)cc2)N(C)C(=O)C2CCCN2C(=O)C(CC(C)C)NC(=O)[C@H](C)C(=O)[C@H](C(C)C)OC(=O)CC1O (some centres undefined) | < 260 nM
11 | O=C1CC(c2ccccc2)CC(O)=C1C=Nc1cccc(Cl)c1 (centres undefined) | 4940 nM
12 | CN(C)c1ccc(/C=C/c2ccc3c4ccccc4ccc3[n+]2-c2ccccc2)cc1 | < 260 nM
13 | CN(Cc1cccc(Cl)c1Cl)C(=O)c1cccc(S(=O)(=O)N2CCN(Cc3ccccc3)CC2)c1 | 3380 nM
14 | CC1(C)CC[C@]2(C(=O)n3ccnc3)CC[C@]3(C)[C@H](C(=O)C=C4[C@@]5(C)C=C(C#N)C(=O)C(C)(C)[C@@H]5CC[C@]43C)[C@@H]2C1 | < 260 nM
15 | O=[N+]([O-])c1c(Nc2cccc(O)c2)cc(Cl)c2nonc12 | 683 nM
16 | Cn1c(/C=C/c2ccc(Cl)cc2Cl)c([N+](=O)[O-])c(=O)n(C)c1=O | 6870 nM
17 | CN(CC(=O)Nc1ccccc1Cl)C(=O)c1cccc(S(=O)(=O)N2CCN(c3ccccc3)CC2)c1 | 3840 nM
18 | CCOC(=O)N1CCN(C(=O)c2ccc(Cn3c(=S)[nH]c4ccc(Br)cc4c3=O)cc2)CC1 | 1250 nM
19 | CCC(=O)c1ccc(OCc2ccc(C(=O)c3ccccc3)cc2)cc1 | 3290 nM
20 | COc1cccc(C(NC(C)=O)c2ccc3cccnc3c2O)c1 (centres undefined) | 1390 nM
21 | Cc1ccc(C)c(S(=O)(=O)N2CCN(c3ncnc4sccc34)CC2)c1 | 631 nM
22 | c1coc(CN(Cc2ccco2)c2ncnc3c2oc2ccccc23)c1 | 5450 nM
23 | O=c1oc2ccccc2cc1-c1cn2ccccc2n1 | 3640 nM
24 | COc1ccccc1NC(=O)Nc1nc(C(N)Cc2ccc(C(F)(F)F)cc2)cs1 (centres undefined) | 10300 nM
25 | Cc1cc(C)c2nc(NNC(=O)c3ccc(S(=O)(=O)N4CC(C)CC(C)C4)cc3)sc2c1 (centres undefined) | 2280 nM

Row | Structure (SMILES) | AC50
26 | COc1ccc(CS(=O)(=O)/C(Cl)=C(/Cl)C(=O)Nc2ccc(OC)nc2)cc1 | < 260 nM
27 | c1ccc(CNc2ncnc3scc(-c4cccs4)c23)nc1 | 3590 nM
28 | Cn1cccc1C(=O)NC(=O)COC(=O)c1ccc(S(C)(=O)=O)c([N+](=O)[O-])c1 | 15100 nM
29 | Fc1ccc2[nH]c3c(NCc4ccccc4)ncnc3c2c1 | 3090 nM
30 | COC(=O)c1ccccc1NC(=O)c1nc(S(=O)(=O)Cc2ccccc2)ncc1Cl | 428 nM
31 | COc1ccc(NS(=O)(=O)c2ccc(OC)c(N(C)S(=O)(=O)c3ccc(Cl)cc3)c2)cc1 | 2920 nM
32 | C#CCn1c(=NC(=O)c2ccc(S(=O)(=O)N3CCc4ccccc4C3)cc2)sc2cc(S(N)(=O)=O)ccc21 | 1290 nM
33 | Nc1nc(N)c2cc(CNc3ccc(Cl)c(Cl)c3)ccc2n1 | 956 nM
34 | Cc1cc(C)nc(SCC(=O)Nc2ccc(N3CCOCC3)c(Cl)c2)n1 | 1660 nM
35 | CC(O)CC(=O)OC[C@]12CC[C@H]3[C@@](C)(CC[C@H]4C(C)(C)CCC[C@]34C)[C@@H]1CC(C1=CC(=O)OC1O)O2 (some centres undefined) | 3750 nM
36 | O=[N+]([O-])c1c(NCCCO)cc(Sc2nc3ccccc3s2)c2nonc12 | 1580 nM
37 | COc1ccc(Cl)cc1N/C(N)=N/c1nc(CSc2ccc(C)cc2)cc(=O)[nH]1 | 1820 nM
38 | CCOc1cc2c(cc1OCC)-n1cccc1C(c1ccc(C(C)C)cc1)NC2 (centres undefined) | 7220 nM
39 | CN(CC(=O)Nc1ccccc1Cl)C(=O)c1cccc(S(=O)(=O)N2CCN(c3ccc(F)cc3)CC2)c1 | 3620 nM
40 | O=[N+]([O-])c1cc(CN2CCN(c3ccccc3)CC2)c(O)c2ncccc12 | 1990 nM
41 | O=C(N[C@@H]1C/C=C\C[C@@H](CC(=O)N(CCO)Cc2ccccc2)C(=O)NC[C@H](c2ccccc2)OC1=O)OCC1c2ccccc2-c2ccccc21 | 7040 nM
42 | CC(C)(C)OC(=O)NCCCCCNC(=O)c1nc[nH]c1C(=O)NCc1ccc(CNC(=O)OC(C)(C)C)cc1 | 3950 nM
43 | Cc1ccc(S(=O)(=O)N2[C@H](c3cccc(Cl)c3)CC(=O)[C@@H]3CN(S(=O)(=O)c4ccccc4C)[C@H](c4ccc(Cl)cc4)C[C@@H]32)cc1 | 289 nM
44 | O=C(/C=C1\C(=O)Nc2ccccc21)/C=C1\C(=O)Nc2ccccc21 | 9500 nM
45 | COc1ccc(C(=O)C(CN2CCOCC2)c2ccccc2)cc1 (centres undefined) | 5590 nM
46 | C=C1C(=O)C23CCC4C(C)(C(=O)OC)CCCC4(C)C2CCC1(O)C3 (centres undefined) | 976 nM
47 | CCCOc1ccccc1C1CC(=O)Nc2cc3c(cc21)OCO3 (centres undefined) | 5720 nM
48 | COc1cccc(N2CCN(c3ncnc4c3cnn4-c3ccc(C)cc3C)CC2)c1 | 4650 nM
49 | CC1(c2ccc3ccccc3c2)NC(=O)N(CC(=O)N2CCN(Cc3ccc(C#N)cc3)CC2)C1=O (centres undefined) | 416 nM
50 | O=[N+]([O-])c1cc2c(c(CSc3nnc(Nc4ccccc4)s3)c1)OCOC2 | 3620 nM

Row | Structure (SMILES) | AC50
51 | CC1=NN(c2nc3ccccc3[nH]2)C(=O)C1Cc1ccccc1 (centres undefined) | 4110 nM
52 | Cc1ccc(CC(=O)Nc2ccncc2)cc1 | 2390 nM
53 | CC(Oc1ccc(Cl)cc1Cl)c1nc(-c2ccc(NC(=O)c3ccncc3)cc2)no1 (centres undefined) | 3930 nM
54 | Cc1ccc(C)c(S(=O)(=O)N2CCN(C(=O)C3CCN(c4ncnc5sc(C)c(C)c45)CC3)CC2)c1 | 2820 nM
55 | COC1CC2C=C(C)C=CC=CC(=O)NC(c3ccccc3)CC=CCCC(O)CC(=O)C2=C1O (centres undefined) | 629 nM
56 | O=C(c1ccccc1)C(CN1CCCC1)c1ccccc1 (centres undefined) | 10700 nM
57 | CC[C@H](C)C(=O)O[C@H]1C[C@@H](C)C=C2C=C[C@H](C)[C@H](CC[C@@H]3C[C@@H](O)CC(=O)O3)[C@H]21 | 1620 nM
58 | CCCOC(=O)c1ccc(OCC(O)Cn2c(C)nc3ccccc32)cc1 (centres undefined) | 620 nM
59 | COc1ccc(-c2nc(CN3CCN(c4ncnc5ccccc45)CC3)c(C)o2)c(OC)c1 | 6380 nM
60 | CS(=O)(=O)c1ccc(C(=O)OCC(=O)N2CCN(CCC3CCCCC3)CC2)cc1[N+](=O)[O-] | 2410 nM
61 | Cc1ccc(-c2nc(NC(=O)c3nn(C)cc3[N+](=O)[O-])sc2C)cc1 | 1300 nM
62 | Cc1ccc(C)c(S(=O)(=O)N2CCN(Cc3ccc(O)c4ncccc34)CC2)c1 | 2840 nM
63 | CSc1ccc(CN(C)C(=O)c2cccc(S(=O)(=O)N3CCN(Cc4ccccc4)CC3)c2)cc1 | 2890 nM
64 | CC(C)N=C(N)N=C(N)Nc1ccc(Cl)cc1 | 370 nM
65 | Nc1nnc(SCC(=O)Nc2ccc(N3CCOCC3)cc2)s1 | 16800 nM
66 | Cc1cccc2c(C(=O)N3CCN(c4ccccn4)CC3)cc(-c3cccc(Br)c3)nc12 | 6480 nM
67 | CC(C)(C)NCC(=Cc1ccccc1)C(=O)c1ccccc1 | 4510 nM
68 | O=C(OCCOc1ccc(Cl)cc1)c1cc(S(=O)(=O)N2CCCCC2)ccc1N1CCOCC1 | 1970 nM
69 | Cc1cc(NNC(=O)c2cccc(C(F)(F)F)c2)nc2c1c(C)nn2C | 2430 nM
70 | Cc1cc(S(=O)(=O)c2ccc(Cl)cc2)nc(S(=O)(=O)c2ccc(Cl)cc2)c1C#N | 2830 nM
71 | Cn1c(/C=C/c2ccc([N+](=O)[O-])o2)nc2ccccc2c1=O | 2370 nM
72 | Cc1c(C)c2ccc(OCC(=O)Nc3ccccn3)c(C)c2oc1=O | 416 nM
73 | COC(=O)c1ccc(NC(=O)c2nc(S(=O)(=O)Cc3cccc(C)c3)ncc2Cl)cc1 | 1350 nM
74 | CC(C)OC(=O)c1ccc(NCc2cc(O)ccc2O)cc1 | 1900 nM
75 | COc1cccc(N2CCN(c3ncnc4c3[nH]c3ccc(F)cc34)CC2C)c1 (centres undefined) | 1310 nM

Row | Structure (SMILES) | AC50
76 | COC(=O)C1=C(c2ccc(OCc3ccccc3)cc2)C[C@@H]2CC[C@H]1N2C(=O)NCc1ccc(OC)c(OC)c1 | 19700 nM
77 | C=CCOC(=O)C1=C(C)N=C2SCCC(=O)N2C1c1cccs1 (centres undefined) | > 70000 nM (inactive)
78 | CCN1CCN(Cc2ccc(NC(=O)c3cc(NC(=O)c4cc5cccc(OC)c5o4)cc(OC)c3)cc2C(F)(F)F)CC1 | 10200 nM and 9770 nM
79 | COc1cc(Nc2nc(-c3ccccc3)c3cc(C)ccc3n2)cc(OC)c1OC | 6550 nM
80 | CCc1cc2c(N3CCN(c4ccccc4)CC3)ncnc2s1 | 6180 nM
81 | C=C1C(=O)OC2C=C(CO)C3OC3C3OC3(C)CC(OC(=O)/C(=C/C)COC(C)=O)C12 (centres undefined) | 5890 nM
82 | CCOc1ccc(OCC(=O)N(CCC2=CCCCC2)c2c(N)n(Cc3ccccc3)c(=O)[nH]c2=O)cc1 | 8660 nM
83 | Cc1ccccc1OCCOC(=O)c1cc(S(=O)(=O)N2CCCCC2)ccc1N1CCOCC1 | 3790 nM
84 | CC(C)(C)C(=O)Cn1ncc(Br)c(Br)c1=O | 9510 nM
85 | COC(=O)c1cc2c(n1S(=O)(=O)c1ccc(C)cc1)C(=O)C(=O)c1[nH]cc(C(=O)OCc3ccccc3)c1-2 | 1200 nM
86 | CCC(=O)NC(c1ccco1)c1cc(Cl)c2cccnc2c1O (centres undefined) | 1310 nM
87 | N=c1n(Cc2ccc(Cl)cc2)c2ccccc2n1CC(O)COc1ccccc1 (centres undefined) | 2340 nM
88 | Cc1cccc(Nc2nc(NCc3ccco3)c3ccccc3n2)c1 | 2050 nM
89 | C=CCn1c(C)cc(C2=NNC(=NCC)SC2)c1C | < 260 nM
90 | Cc1ccc(-n2ncc3c2CCCC3NC(=O)c2ocnc2C)cc1C (centres undefined) | 1290 nM
91 | CN(C)S(=O)(=O)c1cccc(NC(=O)c2cccc(S(=O)(=O)N3CCc4ccccc43)c2)c1 | 3920 nM
92 | CC(=O)Oc1ccc(OC(C)=O)c(SCCCCCCl)c1 | 2580 nM
93 | CCOC(=O)c1c(CSc2ccc(CC)cc2)oc2ccc(O)c(CN(C)C)c12 | 3050 nM
94 | CC(C)C[C@@H](CO)N(Cc1ccccc1)S(=O)(=O)N(Cc1ccccc1)[C@@H](CO)CC(C)C | 11400 nM
95 | C[C@H]1C[C@@H](C)C(=O)[C@@H]([C@H](O)CC2CC(=O)NC(=O)C2)C1 | 307 nM
96 | CCOC(=O)N1CCN(C(=O)c2ccc3c(c2)N(Cc2ccc(C)cc2)CCS3)CC1 | 6000 nM
97 | C[n+]1c2n(c3ccccc31)N=C(c1cc(C(C)(C)C)c(O)c(C(C)(C)C)c1)CS2 | 5920 nM
98 | O=C(Nc1nc(-c2ccccn2)cs1)c1ccc(F)c(S(=O)(=O)N2CCOCC2)c1 | 1320 nM
99 | O=C1C(F)=CC(COC(c2ccccc2)(c2ccccc2)c2ccccc2)OC1n1cc(F)c(=O)[nH]c1=O (centres undefined) | 428 nM

— PubChem BioAssay AID743417 (Broad Institute, 2014)
